Source: US20090099167A1, “Organic compounds” (Novartis Institutes for Biomedical Research, priority 2004, published 2009)
Like-named read-outs stand apart in the source and are kept apart here.

Legend:
Type in all cases: biochemical
[1] = biological target: T1, human insulin receptor (Ins-R) (Homo sapiens, UniProt P06213); experiment: Ins-R tyrosine kinase assay, GST-Ins-R
T1 construct: encoding the amino acid region 919-1343 of the intra-cytoplasmic kinase domain of the human insulin receptor; made in house; host or cells: baculovirus (Bac-to-Bac)
Source text: (§1) The inhibition of IGF-1R and Ins-R can be determined as follows: The baculovirus donor vector pfbgx3IGFIRcd is used to generate a recombinant baculovirus that expresses the amino acid region 950-1337 of the mature peptide cytoplasmic domain of the human IGF-IR. To generate the cDNA fragment encoding the amino acid region 919-1343 of the intra-cytoplasmic kinase domain of the human insulin receptor, pC5hInsR is used. The fragments of the human IGF-IR and Ins-R are cloned, expressed and small-scale purified as a factor Xa-cleavable glutathione-S-transferase (GST)-fusion protein using the Bac-to-Bac™ system (GIBCO BRL) of recombinant baculovirus generation. Virus containing media is collected from the transfected cell culture and used for infection to increase its titer. Virus containing media obtained after two rounds of infection is used for large-scale protein expression. Cell extracts are prepared and loaded onto a glutathione-Sepharose (Pharmacia) column. After washing, the GST-tagged proteins are then eluted with a glutathione-containing buffer. Purified protein is stored at −70° C. in elution buffer. Tyrosine protein kinase assays with purified GST-IGF-1R and GST-ins-R are carried in a final volume of 30 μl containing 20 mM Tris-HCl, pH 7.6, 10 mM MgCl2, 0.01 mM Na3VO4, 1% DMSO, 1 mM DTT, 3 μg/ml poly(Glu,Tyr) 4:1 and 10 μM ATP (γ-[^33P]-ATP 0.1 μCi). The assay is performed in 96-well plates at ambient temperature for 20 min and terminated by addition of 25 μl 0.05 M EDTA pH 7.0. An aliquot of 40 μl is spotted with a multichannel dispenser on Whatman P81 membranes mounted in a Millipore Microtiter filter manifold connected to a low vacuum source. After elimination of liquid, the membrane is transferred to a sequence of 4 washing baths containing 0.5% H3PO4 and one with EtOH (shaking incubation for 10 min each), dried, mounted onto a Hewlett Packard TopCount manifold added 10 μl Microscint® and counted. Compounds of formula (I) show up to 90% inhibition of Ins-R at 10,000 nM, preferably between 60-90% inhibition. The inhibition of Tek can be determined as follows: The procedure of the expression, purification and assay these kinases has been described. Fabbro et al., Pharmacol. Ther. 82(2-3) 293-301 (1999). In brief, the glutathione S-transferase (GST) gene from the pAcG1 vector (Pharmingen) is excised with EcoRV and EcoRI and inserted into the cloning site of the Fast-Bac baculoviral vector (GIBCO) creating a 5530 bp vector with N-terminal cloning sites derived from the pAcG1 fusion vector (FBG0). The C-terminal cloning site may be any cloning site (from the Fast-Bac vector) downstream of the N-terminal cloning site used. N-terminally GST-fused (pAcG1, Pharmingen) KDR, Flt-1, Flk-1, Tek and PDGFR-β kinase domains are obtained from ProQinase, Freiburg, Germany. Tek is recloned into the FBG1 vector by EcoRI excision and ligation into EcoRI digested FBG1 (FBG1-Tek). The coding sequences for the whole cytoplasmic domain of c-Kit (aa 544-976) and c-Fms (aa 538-972) are amplified by PCR from human uterus and from human bone marrow cDNA libraries (Clontech), respectively. The amplified DNA fragments are fused to GST by cloning them into FBG1 as BamHI-EcoRI insertions, to yield FBG1-c-Kit and FBG1-c-Fms. Tek is recloned into the FBG0 transfer vector by EcoRI excision and ligation into EcoRI digested FBG0 (FBG-Tie2/Tek). FGFR-1 and c-met kinase domains are obtained by PCR from human A431 cells. N-terminal primers contain an overhanging EcoRI site, while C-terminal primers contain a XhoI site to aid cloning into the transfer vectors. After digestion of both the PCR fragments and FBG0 the cleavage products are gel-purified and ligated together to form the kinase constructs (FBG-Met, FBG-FGFR-1).

Tek = biological target: T2, Tek (Homo sapiens, UniProt Q02763); experiment: Tek kinase inhibition, GST-fused kinase domain; conditions: Table 5; read-out: Tek, IC50 class
T2 construct: N-terminally GST-fused (pAcG1, Pharmingen) KDR, Flt-1, Flk-1, Tek and PDGFR-β kinase domains are obtained from ProQinase, Freiburg, Germany; host or cells: Sf9 or High Five (baculovirus)
Source text: as §1
Viruses for each of the kinases are made according to the protocol supplied by GIBCO. […]

c-Abl kinase = biological target: T3, c-Abl kinase (Homo sapiens, UniProt P00519); experiment: c-Abl protein-tyrosine kinase filter binding assay
T3 construct: The His-tagged kinase domain of c-Abl is cloned and expressed in the baculovirus/Sf9 system; His; made in house; host or cells: Sf9 (baculovirus)
T3 sequence (P00519 242-493 limits assumed): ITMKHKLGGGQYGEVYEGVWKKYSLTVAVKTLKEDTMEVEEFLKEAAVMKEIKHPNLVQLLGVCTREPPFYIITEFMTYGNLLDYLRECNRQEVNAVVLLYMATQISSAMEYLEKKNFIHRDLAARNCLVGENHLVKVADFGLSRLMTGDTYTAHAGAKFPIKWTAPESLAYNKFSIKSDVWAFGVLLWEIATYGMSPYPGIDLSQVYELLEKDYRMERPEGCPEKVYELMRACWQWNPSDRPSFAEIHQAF
Procedure, shortened: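 His-tagged c-Abl kinase domain (37 kD, Sf9-expressed) with 30 μg/mL poly-AEKY and [γ-33P]-ATP (5 μM ATP) in 20 mM Tris.HCl pH 7.5, 10 mM MgCl2, 10 μM Na3VO4, 1 mM DTT, 1% DMSO. EDTA-stopped reactions captured on PVDF membranes, washed with 0.5% H3PO4, and scintillation-counted.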

[2] = Table 5, read-out: Ins-R, IC50 class
[3] = Table 5, read-out: C-abl, IC50 class

T1 sequence (P06213 958-1382 limits assumed): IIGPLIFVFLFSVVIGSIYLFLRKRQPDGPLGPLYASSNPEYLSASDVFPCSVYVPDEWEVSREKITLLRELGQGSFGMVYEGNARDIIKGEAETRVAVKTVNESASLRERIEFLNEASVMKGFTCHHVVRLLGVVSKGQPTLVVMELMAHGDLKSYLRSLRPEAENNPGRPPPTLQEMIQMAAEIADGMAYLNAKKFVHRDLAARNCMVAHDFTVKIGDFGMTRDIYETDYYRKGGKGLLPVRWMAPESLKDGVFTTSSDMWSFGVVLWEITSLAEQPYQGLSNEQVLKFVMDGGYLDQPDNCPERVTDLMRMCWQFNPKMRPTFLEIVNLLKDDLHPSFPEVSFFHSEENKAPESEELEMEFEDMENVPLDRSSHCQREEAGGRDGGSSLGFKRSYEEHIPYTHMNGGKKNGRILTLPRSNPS
T2 sequence (Q02763 824-1096 limits assumed, species assumed): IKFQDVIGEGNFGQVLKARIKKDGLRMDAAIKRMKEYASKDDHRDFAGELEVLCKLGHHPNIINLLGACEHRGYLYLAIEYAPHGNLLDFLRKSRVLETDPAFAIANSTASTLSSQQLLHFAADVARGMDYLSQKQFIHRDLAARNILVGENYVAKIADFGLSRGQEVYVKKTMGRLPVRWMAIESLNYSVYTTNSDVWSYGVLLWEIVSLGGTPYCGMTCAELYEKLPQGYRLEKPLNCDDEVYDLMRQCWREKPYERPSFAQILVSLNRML

Question: What does the source list for `COc1cc(N2CCN(C)CC2)ccc1-c1cnn2c(N)c(-c3cccc(O)c3)cnc12` [Example 76, 3-{7-Amino-3-[2-methoxy-4-(4-methyl-piperazin-1-yl)-phenyl]-pyrazolo[1,5-a]pyrimidin-6-yl}-phenol]?
Answer: IC50 [1, 2]: 1000 to 10000 nM; IC50 (Tek): < 1000 nM

Question: For `Cc1nc2c(-c3ccc(N4CCN(C)CC4)cc3)cnn2c(N)c1-c1ccc(F)c(Cl)c1` [Example 83, 6-(3-Chloro-4-fluoro-phenyl)-5-methyl-3-[4-(4-methyl-piperazin-1-yl)-phenyl]-pyrazolo[1,5-a]pyrimidin-7-ylamine], which IC50 [1, 2] is on record?
Answer: > 10000 nM

Question: And the IC50 (c-Abl kinase; [3])?
Answer: < 1000 nM

Question: And the IC50 (Tek)?
Answer: > 10000 nM

Question: What does the source list for `Cc1nc2c(-c3ccc(N4CCN(C)CC4)cc3)cnn2c(N)c1-c1cccc(Cl)c1` [Example 73, 6-(3-Chloro-phenyl)-5-methyl-3-[4-(4-methyl-piperazin-1-yl)-phenyl]-pyrazolo[1,5-a]pyrimidin-7-ylamine]?
Answer: IC50 [1, 2]: > 10000 nM; IC50 (c-Abl kinase; [3]): < 1000 nM; IC50 (Tek): 1000 to 10000 nM

Question: Which IC50 [1, 2] does the source give for `Cc1nc2c(-c3cccc(N4CCN(CCO)CC4)c3)cnn2c(N)c1-c1cccc(Cl)c1` [Example 90, 2-(4-{3-[7-Amino-6-(3-chloro-phenyl)-5-methyl-pyrazolo[1,5-a]pyrimidin-3-yl]-phenyl}-piperazin-1-yl)-ethanol] here?
Answer: > 10000 nM

Question: And the IC50 (c-Abl kinase; [3])?
Answer: < 1000 nM

Question: What about the IC50 (Tek) of the same compound?
Answer: 1000 to 10000 nM

Question: `CN1CCN(c2cccc(-c3cnn4c(N)c(-c5cccc(Br)c5)cnc34)c2)CC1` [Example 86, 6-(3-Bromo-phenyl)-3-[3-(4-methyl-piperazin-1-yl)-phenyl]-pyrazolo[1,5-a]pyrimidin-7-ylamine] was tested. Which IC50 (c-Abl kinase; [3]) did it give?
Answer: < 1000 nM

Question: What about the IC50 (Tek) of the same compound?
Answer: 1000 to 10000 nM

Question: For `CN1CCN(c2cccc(-c3cnn4c(N)c(Cc5cccc(Br)c5)cnc34)c2)CC1` [Example 85, 6-(3-Bromo-benzyl)-3-[3-(4-methyl-piperazin-1-yl)-phenyl]pyrazolo[1,5-a]pyrimidin-7-ylamine], which IC50 (c-Abl kinase; [3]) is on record?
Answer: < 1000 nM

Question: What about the IC50 (Tek) of the same compound?
Answer: > 10000 nM

Question: Which results are given for `Cc1nc2c(-c3cccc(N4CCN(C5CCN(C)CC5)CC4)c3)cnn2c(N)c1-c1cccc(Cl)c1` [Example 81, 6-(3-Chloro-phenyl)-5-methyl-3-{3-[4-(1-methyl-piperidin-4-yl)-piperazin-1-yl]-phenyl}-pyrazolo[1,5-a]pyrimidin-7-ylamine]?
Answer: IC50 (c-Abl kinase; [3]): < 1000 nM; IC50 (Tek): < 1000 nM

Question: Which results are given for `Cc1nc2c(-c3cccc(N4CC[N+](C)([O-])CC4)c3)cnn2c(N)c1-c1ccc(F)cc1` [Example 106, 6-(4-Fluoro-phenyl)-5-methyl-3-[3-(4-methyl-4-oxy-piperazin-1-yl)-phenyl]-pyrazolo[1,5-a]pyrimidin-7-ylamine]?
Answer: IC50 (c-Abl kinase; [3]): < 1000 nM; IC50 (Tek): > 10000 nM

Question: Which IC50 [1, 2] does the source give for `COc1ccc(-c2cnn3c(N)c(-c4cccc(Cl)c4)c(C)nc23)cc1` [Example 88, 6-(3-Chloro-phenyl)-3-(4-methoxy-phenyl)-5-methyl-pyrazolo[1,5-a]pyrimidin-7-ylamine] here?
Answer: > 10000 nM

Question: And the IC50 (c-Abl kinase; [3])?
Answer: < 1000 nM

Question: And the IC50 (Tek)?
Answer: > 10000 nM

Question: `Cc1nc2c(-c3cccc(N4CCOCC4)c3)cnn2c(N)c1-c1cccc(Cl)c1` [Example 87, 6-(3-Chloro-phenyl)-5-methyl-3-(3-morpholin-4-yl-phenyl)-pyrazolo[1,5-a]pyrimidin-7-ylamine] was tested. Which IC50 (c-Abl kinase; [3]) did it give?
Answer: < 1000 nM

Question: What about the IC50 (Tek) of the same compound?
Answer: > 10000 nM

Question: Which results are given for `Cc1nc2c(-c3cccc(N4CCN(C)CC4)c3)cnn2c(N)c1-c1cccc(Br)c1` [Example 84, 6-(3-Bromo-phenyl)-5-methyl-3-[3-(4-methyl-piperazin-1-yl)-phenyl]-pyrazolo[1,5-a]pyrimidin-7-ylamine]?
Answer: IC50 (c-Abl kinase; [3]): < 1000 nM; IC50 (Tek): > 10000 nM

Question: For `COc1ccc(-c2cnn3c(N)c(-c4ccc(F)c(Cl)c4)c(C)nc23)cc1` [Example 95, 6-(3-Chloro-4-fluoro-phenyl)-3-(4-methoxy-phenyl)-5-methyl-pyrazolo[1,5-a]pyrimidin-7-ylamine], which IC50 (c-Abl kinase; [3]) is on record?
Answer: < 1000 nM

Question: And the IC50 (Tek)?
Answer: > 10000 nM

Question: What does the source list for `Cc1nc2c(-c3cccc(N4CCN(C)CC4)c3)cnn2c(N)c1-c1ccc(F)cc1` [Example 80, 6-(4-Fluoro-phenyl)-5-methyl-3-[3-(4-methyl-piperazin-1-yl)-phenyl]-pyrazolo[1,5-a]pyrimidin-7-ylamine]?
Answer: IC50 [1, 2]: > 10000 nM; IC50 (c-Abl kinase; [3]): < 1000 nM; IC50 (Tek): 1000 to 10000 nM

Question: With `COc1ccc(-c2cnn3c(N)c(-c4cccc(Cl)c4)c(C)nc23)cc1OC` [Example 93, 6-(3-Chloro-phenyl)-3-(3,4-dimethoxy-phenyl)-5-methyl-pyrazolo[1,5-a]pyrimidin-7-ylamine] as the compound, how does the IC50 (c-Abl kinase; [3]) read?
Answer: < 1000 nM

Question: And the IC50 (Tek)?
Answer: > 10000 nM

Question: What does the source list for `Cc1nc2c(-c3cccc(N4CCN(CCO)CC4)c3)cnn2c(N)c1-c1ccc(F)cc1` [Example 97, 2-(4-{3-[7-Amino-6-(4-fluoro-phenyl)-5-methyl-pyrazolo[1,5-a]pyrimidin-3-yl]-phenyl}-piperazin-1-yl)-ethanol]?
Answer: IC50 (c-Abl kinase; [3]): < 1000 nM; IC50 (Tek): > 10000 nM

Question: For `Cc1nc2c(-c3cccc(N4CCN(CCO)CC4)c3)cnn2c(N)c1-c1ccc(F)c(F)c1` [Example 101, 2-(4-{3-[7-Amino-6-(3,4-difluoro-phenyl)-5-methyl-pyrazolo[1,5-a]pyrimidin-3-yl]-phenyl}-piperazin-1-yl)-ethanol], which IC50 (c-Abl kinase; [3]) is on record?
Answer: < 1000 nM

Question: What about the IC50 (Tek) of the same compound?
Answer: > 10000 nM

Question: Which IC50 [1, 2] does the source give for `Cc1nc2c(-c3cccc(N4CCN(C)CC4)c3)cnn2c(N)c1-c1cccc(Cl)c1` [Example 72, 6-(3-Chloro-phenyl)-5-methyl-3-[3-(4-methyl-piperazin-1-yl)-phenyl]-pyrazolo[1,5-a]pyrimidin-7-ylamine] here?
Answer: 1000 to 10000 nM

Question: What about the IC50 (c-Abl kinase; [3]) of the same compound?
Answer: < 1000 nM

Question: What about the IC50 (Tek) of the same compound?
Answer: 1000 to 10000 nM

Question: Which results are given for `CN1CCN(c2ccc(-c3cnn4c(N)c(-c5cccc(O)c5)cnc34)cc2)CC1` [Example 1, 3-{7-Amino-3-[4-(4-methyl-piperazin-1-yl)-phenyl]-pyrazolo[1,5-a]pyrimidin-6-yl}-phenol]?
Answer: IC50 ([1]; Table 4, read-out: Ins-R, activity (IC50 for kinase inhibition)): < 10000 nM; IC50 (c-Abl kinase; Table 4, read-out: c-abl, activity (IC50 for kinase inhibition)): < 10000 nM
